The values below come from patent US20240316059A1, “PEPTIDE DRUG CONJUGATES” (Oncopeptides AB, priority 2021, published 2024).

The first test has as its system MM.1S cells. As to the kind of experiment: In vitro cytotoxic potency in MM.1S cell viability assay (CellTiter-Glo). Type of test: cell-based, human. Particulars: 72 h, CellTiter-Glo 2.0; read-out: MM.1S IC50. Here is the method:
Methods: MM.1S Cells were cultivated in RPMI medium 1640 (IX) supplemented with 10 μg/μL penicillin/streptomycin, 10% heat inactivated FBS, 0.1 mM Sodium Pyruvate, 1×MEM NEAA (ThermoFisher) and 1 mM HEPES. Cells were grown to reach log phase before being exposed to the test compounds.
Test compounds (Example compounds 1 to 36, 38 to 41 and 45 to 48) and comparative compounds (bendamustine, busulfan, melphalan, chlorambucil and 4-hydroperoxy cyclophosphamide) were dissolved in 100% DMSO and added to a 384 assay plate. Additional DMSO was added to maintain the same final DMSO concentration (0.2%) in all wells. 25 μL cell suspension with a concentration of 100000 cells/mL was added to each well. The cells were cultured in a CO2 incubator at 37° C. for 72 h. Plates were equilibrated to room temperature for 30 minutes before adding 20 μL CellTiter-Glo® 2.0 (Promega) reagent to all wells. The plate was then allowed to stabilize for 20 minutes before recording the luminescence (emission filter 700 nm) in an Envision plate reader.
All cells were cultivated in RPMI medium 1640 (IX). All media was supplemented with 10 μg/μl penicillin/streptomycin, 10% heat inactivated FBS, 0.1 mM Sodium Pyruvate, 1×MEM NEAA (ThermoFisher) and 1 mM HEPES. The DERL-2 cells had higher FBS (20%) and 40 ng/mL IL-2 was added. hPBMCs were thawed and allowed to acclimatise overnight and then stimulated with 10 μg/mL PHA-M and 40 ng/mL IL-2 for 4 hours before being exposed to test compounds. All cells, except for hPBMCs, were grown to reach log phase before being exposed to the test compounds.
Test compounds were dissolved in 100% DMSO and added to a 384 assay plate. Additional DMSO was added to maintain the same final DMSO concentration (0.2%) in all wells. 25 μL cell suspension with a concentration of 100000 cells/mL was added to each well. The cells were cultured in a CO2 incubator at 37° C. for 72 h. Plates were equilibrated to room temperature for 30 minutes before adding 20 μL CellTiter-Glo® 2.0 (Promega) reagent to all wells. The plate was then allowed to stabilize for 20 minutes before recording the luminescence (Em filter 700 nm) in an Envision plate reader.
Regarding `COCC(C)OC(=O)[C@H](CC(C)C)NC(=O)[C@@H](N)CCc1nc2cc(N(CCCl)CCCl)ccc2n1C` (stereo partly drawn) [Example 29, (2-Methoxy-1-methyl-ethyl) (2S)-2-[[(2S)-2-amino-4-[5-[bis(2-chloroethyl)amino]-1-methyl-benzimidazol-2-yl]butanoyl]amino]-4-methyl-pentanoate], the IC50 – broadly, the midpoint of a concentration-inhibition curve – turned out to be 1.4 nM.

The test is the same for the next values; noted with them: Homo sapiens, MM1.S, 72 h, read-out: MM.1S IC50.
Take `CNC(=O)[C@H](CC(C)C)NC(=O)[C@@H](N)CCc1nc2cc(N(CCCl)CCCl)ccc2n1C` [Example 31, (2S)-2-[[(2S)-2-amino-4-[5-[bis(2-chloroethyl)amino]-1-methyl-benzimidazol-2-yl]butanoyl]amino]-N,4-dimethyl-pentanamide]: the IC50 was 181 nM.
The same measure, in the same setting: the figure for `CCOC(=O)[C@H](CC(C)C)NC(=O)[C@H](CCc1nc2cc(N(CCCl)CCCl)ccc2n1C)NC` [Example 32, Ethyl (2S)-2-[[(2S)-4-[5-[bis(2-chloroethyl)amino]-1-methyl-benzimidazol-2-yl]-2-(methylamino)butanoyl]amino]-4-methyl-pentanoate] is 14.3 nM; for `CN[C@@H](CCc1nc2cc(N(CCCl)CCCl)ccc2n1C)C(=O)N[C@@H](CC(C)C)C(=O)O` [Example 33, (2S)-2-[[(2S)-4-[5-[bis(2-chloroethyl)amino]-1-methyl-benzimidazol-2-yl]-2-(methylamino)butanoyl]amino]-4-methyl-pentanoic acid] it is 79900 nM.
On the same count and under the same terms, the result for `CCOC(=O)[C@H](CC(C)C)NC(=O)[C@H](Cc1nc2cc(N(CCCl)CCCl)ccc2n1C)NC(C)=O` [Example 35, Ethyl (2S)-2-[[(2S)-2-acetamido-3-[5-[bis(2-chloroethyl)amino]-1-methyl-benzimidazol-2-yl]propanoyl]amino]-4-methyl-pentanoate] reads 86.7 nM.
Turning to `CCOC(=O)[C@H](Cc1ccc(F)cc1)NC(=O)[C@H](Cc1nc2cc(N(CCCl)CCCl)ccc2n1C)NC(C)=O` [Example 36, Ethyl (2S)-2-[[(2S)-2-acetamido-3-[5-[bis(2-chloroethyl)amino]-1-methyl-benzimidazol-2-yl]propanoyl]amino]-3-(4-fluorophenyl)propanoate], the IC50 was 57.5 nM.
Turning to `Cn1c(CC[C@H](N)C(=O)N[C@@H](Cc2ccc(F)cc2)C(=O)O)nc2cc(N(CCCl)CCCl)ccc21` [Example 39, (2S)-2-[[(2S)-2-Amino-4-[5-[bis(2-chloroethyl)amino]-1-methyl-benzimidazol-2-yl]butanoyl]amino]-3-(4-fluorophenyl)propanoic acid], the IC50 was more than 2000 nM.
On the same count and under the same terms, the result for `CC(C)C[C@H](NC(=O)[C@@H](N)CCc1nc2cc(N(CCCl)CCCl)ccc2n1-c1ccccc1)C(=O)O` [Example 40, (2S)-2-[[(2S)-2-Amino-4-[5-[bis(2-chloroethyl)amino]-1-phenyl-benzimidazol-2-yl]butanoyl]amino]-4-methyl-pentanoic acid] reads 7180 nM; that for `N[C@@H](CCc1nc2cc(N(CCCl)CCCl)ccc2n1-c1ccccc1)C(=O)O` [Example 41, (2S)-2-Amino-4-[5-[bis(2-chloroethyl)amino]-1-phenyl-benzimidazol-2-yl]butanoic acid], 16500 nM; that for `CCOC(=O)[C@@H](CC(C)C)NC(=O)[C@@H](N)CCc1nc2cc(N(CCCl)CCCl)ccc2n1C` [Example 45, Ethyl (2R)-2-[[(2S)-2-amino-4-[5-[bis(2-chloroethyl)amino]-1-methyl-benzimidazol-2-yl]butanoyl]amino]-4-methyl-pentanoate], 512 nM.
For `CCOC(=O)[C@H](CC(C)C)NC(=O)[C@H](N)CCc1nc2cc(N(CCCl)CCCl)ccc2n1C` [Example 46, Ethyl (2S)-2-[[(2R)-2-amino-4-[5-[bis(2-chloroethyl)amino]-1-methyl-benzimidazol-2-yl]butanoyl]amino]-4-methyl-pentanoate], the IC50 worked out at 59.1 nM.
